# Source: ChEMBL document CHEMBL1201862, “PubChem BioAssay data set” (2004)
# Calls of active or inactive are those of the source.
# What was measured:
# [1] = target: Cytochrome P450 2D6 (Homo sapiens, UniProt P10635)
# [2] = target: T1, Cytochrome P450 1A2 (Homo sapiens, UniProt P05177);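 also: PubChem cytochrome P450 panel assay, CYP1A2 panel member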
# T1 sequence (P05177 whole entry): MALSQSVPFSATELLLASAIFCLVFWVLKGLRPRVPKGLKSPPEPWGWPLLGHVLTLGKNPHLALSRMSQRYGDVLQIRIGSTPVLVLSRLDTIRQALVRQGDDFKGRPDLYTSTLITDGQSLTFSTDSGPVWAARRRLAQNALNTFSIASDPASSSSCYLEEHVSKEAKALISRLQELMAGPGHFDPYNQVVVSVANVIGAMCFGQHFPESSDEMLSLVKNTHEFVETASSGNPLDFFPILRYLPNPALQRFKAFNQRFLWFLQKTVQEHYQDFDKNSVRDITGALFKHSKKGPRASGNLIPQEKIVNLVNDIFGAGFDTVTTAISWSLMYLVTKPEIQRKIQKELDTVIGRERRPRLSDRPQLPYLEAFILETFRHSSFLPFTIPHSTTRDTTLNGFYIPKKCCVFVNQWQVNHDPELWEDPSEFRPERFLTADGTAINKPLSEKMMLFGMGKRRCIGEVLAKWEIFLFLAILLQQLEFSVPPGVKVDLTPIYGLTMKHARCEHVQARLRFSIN
# [3] = target: Cytochrome P450 3A4 (Homo sapiens, UniProt P08684);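 also: CYP3A4 tested as one member of a cytochrome P450 panel screen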
# Chain of Cytochrome P450 3A4 (P08684 whole entry): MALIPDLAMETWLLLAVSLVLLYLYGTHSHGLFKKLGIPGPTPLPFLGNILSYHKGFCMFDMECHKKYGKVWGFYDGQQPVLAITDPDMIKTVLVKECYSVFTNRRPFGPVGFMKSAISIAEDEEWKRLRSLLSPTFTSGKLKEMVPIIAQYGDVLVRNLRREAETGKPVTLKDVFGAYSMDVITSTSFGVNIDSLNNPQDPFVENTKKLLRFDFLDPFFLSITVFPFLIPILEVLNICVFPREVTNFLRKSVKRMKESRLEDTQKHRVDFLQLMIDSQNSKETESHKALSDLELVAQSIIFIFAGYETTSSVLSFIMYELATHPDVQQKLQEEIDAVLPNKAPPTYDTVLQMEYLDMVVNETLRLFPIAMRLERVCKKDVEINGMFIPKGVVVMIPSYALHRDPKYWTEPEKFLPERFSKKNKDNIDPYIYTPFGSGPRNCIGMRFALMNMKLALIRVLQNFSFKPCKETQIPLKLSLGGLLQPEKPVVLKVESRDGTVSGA
# [4] = target: T2, Cytochrome P450 2C9 (Homo sapiens, UniProt P11712)
# T2 sequence (P11712 whole entry): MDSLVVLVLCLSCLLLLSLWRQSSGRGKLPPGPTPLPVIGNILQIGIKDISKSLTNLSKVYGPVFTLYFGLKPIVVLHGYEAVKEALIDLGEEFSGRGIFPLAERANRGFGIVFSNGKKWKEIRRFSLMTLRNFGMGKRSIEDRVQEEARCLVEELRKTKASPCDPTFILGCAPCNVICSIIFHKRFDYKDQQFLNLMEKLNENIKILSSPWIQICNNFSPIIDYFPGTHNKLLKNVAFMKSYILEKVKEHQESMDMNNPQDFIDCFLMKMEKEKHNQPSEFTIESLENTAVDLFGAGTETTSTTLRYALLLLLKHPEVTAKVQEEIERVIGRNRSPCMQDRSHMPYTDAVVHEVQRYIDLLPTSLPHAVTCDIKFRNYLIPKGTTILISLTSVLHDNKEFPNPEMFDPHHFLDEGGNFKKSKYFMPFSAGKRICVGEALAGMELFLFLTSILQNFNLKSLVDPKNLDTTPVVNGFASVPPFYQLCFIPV
# [5] = target: T3, Aminopeptidase N (Plasmodium falciparum FcB1/Columbia, UniProt O96935); assay: P. falciparum M1AAP inhibitors, biochemical, fluorogenic H-Leu-NHMec substrate, 1536-well (AID 1445); parameters: species or system Plasmodium falciparum 3D7, 3D7
# T3 sequence (O96935 whole entry): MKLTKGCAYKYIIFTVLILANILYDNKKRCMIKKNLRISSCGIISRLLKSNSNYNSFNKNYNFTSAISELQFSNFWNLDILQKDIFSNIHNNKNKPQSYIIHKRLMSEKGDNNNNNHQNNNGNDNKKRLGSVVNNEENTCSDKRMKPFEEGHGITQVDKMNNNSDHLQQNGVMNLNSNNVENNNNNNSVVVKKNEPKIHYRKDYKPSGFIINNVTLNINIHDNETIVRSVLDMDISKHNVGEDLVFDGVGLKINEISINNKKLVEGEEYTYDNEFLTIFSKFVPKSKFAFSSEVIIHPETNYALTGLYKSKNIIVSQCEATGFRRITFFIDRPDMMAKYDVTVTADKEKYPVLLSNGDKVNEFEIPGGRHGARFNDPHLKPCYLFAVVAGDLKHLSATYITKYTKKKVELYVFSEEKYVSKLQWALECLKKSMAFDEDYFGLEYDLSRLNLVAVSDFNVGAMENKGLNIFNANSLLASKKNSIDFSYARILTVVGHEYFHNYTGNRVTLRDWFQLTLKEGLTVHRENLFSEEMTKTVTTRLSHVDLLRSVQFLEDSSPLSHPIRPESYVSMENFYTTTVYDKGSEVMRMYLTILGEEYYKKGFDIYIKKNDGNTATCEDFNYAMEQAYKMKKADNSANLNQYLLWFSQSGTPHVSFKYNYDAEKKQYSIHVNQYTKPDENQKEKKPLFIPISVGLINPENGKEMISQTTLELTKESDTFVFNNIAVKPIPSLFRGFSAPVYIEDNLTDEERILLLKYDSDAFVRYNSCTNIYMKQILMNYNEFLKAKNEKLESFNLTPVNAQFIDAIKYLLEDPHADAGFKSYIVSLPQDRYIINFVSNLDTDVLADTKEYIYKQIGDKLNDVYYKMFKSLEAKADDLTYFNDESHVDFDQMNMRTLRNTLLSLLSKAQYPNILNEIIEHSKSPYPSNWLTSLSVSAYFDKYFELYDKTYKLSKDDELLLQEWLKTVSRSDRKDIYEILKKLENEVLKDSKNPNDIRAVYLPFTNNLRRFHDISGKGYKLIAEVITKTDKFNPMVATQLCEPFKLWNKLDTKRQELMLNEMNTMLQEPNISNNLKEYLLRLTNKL
# [6] = target: Cytochrome P450 2C19 (Homo sapiens, UniProt P33261); assay: Cytochrome panel assay with activity outcomes. Panel member name: p450-cyp2c19 Compounds with AC50 equal or less than 10 uM are considered active; assay type: functional; settings: read-out: AC50
# Chain of Cytochrome P450 2C19 (P33261 whole entry): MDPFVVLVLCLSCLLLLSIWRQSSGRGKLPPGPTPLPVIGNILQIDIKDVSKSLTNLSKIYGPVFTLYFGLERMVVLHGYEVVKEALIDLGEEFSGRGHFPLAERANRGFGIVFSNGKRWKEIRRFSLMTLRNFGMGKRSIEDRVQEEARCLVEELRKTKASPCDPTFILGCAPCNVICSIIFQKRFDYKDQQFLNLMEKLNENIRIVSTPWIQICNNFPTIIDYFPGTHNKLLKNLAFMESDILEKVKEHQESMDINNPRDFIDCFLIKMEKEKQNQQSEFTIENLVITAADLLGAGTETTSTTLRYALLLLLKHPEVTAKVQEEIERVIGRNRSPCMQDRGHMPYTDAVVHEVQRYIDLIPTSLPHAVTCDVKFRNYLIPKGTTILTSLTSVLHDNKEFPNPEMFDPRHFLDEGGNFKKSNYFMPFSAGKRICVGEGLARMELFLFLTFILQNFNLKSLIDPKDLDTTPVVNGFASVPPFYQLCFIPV
# [7] = target: Genome polyprotein (dengue virus type 2, UniProt P29990); assay: Dengue-2 NS5 methyltransferase inhibitors, primary screen, biochemical, confirmation dose response (AID 588689); assay type: functional
# Chain of Genome polyprotein (P29990 2492-3391 limits assumed): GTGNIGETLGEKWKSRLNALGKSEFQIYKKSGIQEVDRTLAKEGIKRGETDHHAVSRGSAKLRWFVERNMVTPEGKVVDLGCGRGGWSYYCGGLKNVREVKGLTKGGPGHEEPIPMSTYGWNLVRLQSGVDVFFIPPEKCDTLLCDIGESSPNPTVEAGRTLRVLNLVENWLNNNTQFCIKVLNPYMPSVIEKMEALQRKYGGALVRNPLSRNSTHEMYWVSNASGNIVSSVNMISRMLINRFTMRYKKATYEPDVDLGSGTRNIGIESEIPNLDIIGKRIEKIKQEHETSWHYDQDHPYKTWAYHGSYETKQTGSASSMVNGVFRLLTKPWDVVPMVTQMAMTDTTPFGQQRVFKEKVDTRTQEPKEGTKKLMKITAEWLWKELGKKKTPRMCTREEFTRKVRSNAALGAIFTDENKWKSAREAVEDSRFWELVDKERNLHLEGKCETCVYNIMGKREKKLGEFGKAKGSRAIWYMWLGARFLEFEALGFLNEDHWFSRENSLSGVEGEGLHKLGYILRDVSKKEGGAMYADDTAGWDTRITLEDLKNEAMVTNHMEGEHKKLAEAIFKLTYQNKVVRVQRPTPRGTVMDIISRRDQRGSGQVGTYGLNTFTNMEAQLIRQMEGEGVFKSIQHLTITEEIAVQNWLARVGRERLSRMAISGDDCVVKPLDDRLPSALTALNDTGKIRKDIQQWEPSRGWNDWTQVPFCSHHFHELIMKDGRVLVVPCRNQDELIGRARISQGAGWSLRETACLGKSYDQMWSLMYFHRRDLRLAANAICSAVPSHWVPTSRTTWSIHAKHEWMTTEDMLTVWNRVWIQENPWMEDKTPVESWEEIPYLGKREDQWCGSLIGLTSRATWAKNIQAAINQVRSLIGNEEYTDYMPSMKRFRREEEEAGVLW
# [8] = target: T4, Replicative DNA helicase DnaB (Mycobacterium tuberculosis, UniProt P9WMR3); assay: DnaB intein splicing inhibitors, dose response, biochemical, cell-free fluorescence (AID 449749); assay type: functional
# T4 sequence (P9WMR3 whole entry): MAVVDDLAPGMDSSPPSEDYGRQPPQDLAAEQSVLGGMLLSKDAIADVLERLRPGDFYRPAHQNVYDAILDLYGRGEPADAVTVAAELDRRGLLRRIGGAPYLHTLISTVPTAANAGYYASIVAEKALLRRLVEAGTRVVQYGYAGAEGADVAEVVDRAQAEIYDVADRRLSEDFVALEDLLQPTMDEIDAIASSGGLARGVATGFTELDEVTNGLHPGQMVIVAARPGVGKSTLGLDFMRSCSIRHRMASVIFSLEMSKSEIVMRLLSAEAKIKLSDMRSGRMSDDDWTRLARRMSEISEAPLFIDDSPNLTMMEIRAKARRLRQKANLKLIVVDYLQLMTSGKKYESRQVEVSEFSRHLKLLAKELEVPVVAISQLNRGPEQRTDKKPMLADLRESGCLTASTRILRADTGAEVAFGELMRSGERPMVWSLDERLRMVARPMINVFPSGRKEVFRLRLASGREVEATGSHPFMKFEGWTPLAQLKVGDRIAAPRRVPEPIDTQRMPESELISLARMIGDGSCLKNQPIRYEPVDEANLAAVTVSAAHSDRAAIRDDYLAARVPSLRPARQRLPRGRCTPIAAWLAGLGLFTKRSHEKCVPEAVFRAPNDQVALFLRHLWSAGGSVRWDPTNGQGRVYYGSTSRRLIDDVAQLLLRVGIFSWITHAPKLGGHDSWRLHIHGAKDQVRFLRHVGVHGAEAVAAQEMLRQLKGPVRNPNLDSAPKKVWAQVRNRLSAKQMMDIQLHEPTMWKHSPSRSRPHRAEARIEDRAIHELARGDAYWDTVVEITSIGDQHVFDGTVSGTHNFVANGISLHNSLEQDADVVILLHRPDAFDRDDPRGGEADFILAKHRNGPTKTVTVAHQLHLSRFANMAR
# [9] = target: T5, Protein RecA (Mycobacterium tuberculosis, UniProt P9WHJ3); assay: Fluorescence Cell-Free Homogeneous Dose Retest to Identify Inhibitors of RecA-Intein Splicing Activity. [Related pubchem assays (depositor defined):AID2097, AID2223, AID489010, AID492950]; assay type: functional
# T5 sequence (P9WHJ3 whole entry): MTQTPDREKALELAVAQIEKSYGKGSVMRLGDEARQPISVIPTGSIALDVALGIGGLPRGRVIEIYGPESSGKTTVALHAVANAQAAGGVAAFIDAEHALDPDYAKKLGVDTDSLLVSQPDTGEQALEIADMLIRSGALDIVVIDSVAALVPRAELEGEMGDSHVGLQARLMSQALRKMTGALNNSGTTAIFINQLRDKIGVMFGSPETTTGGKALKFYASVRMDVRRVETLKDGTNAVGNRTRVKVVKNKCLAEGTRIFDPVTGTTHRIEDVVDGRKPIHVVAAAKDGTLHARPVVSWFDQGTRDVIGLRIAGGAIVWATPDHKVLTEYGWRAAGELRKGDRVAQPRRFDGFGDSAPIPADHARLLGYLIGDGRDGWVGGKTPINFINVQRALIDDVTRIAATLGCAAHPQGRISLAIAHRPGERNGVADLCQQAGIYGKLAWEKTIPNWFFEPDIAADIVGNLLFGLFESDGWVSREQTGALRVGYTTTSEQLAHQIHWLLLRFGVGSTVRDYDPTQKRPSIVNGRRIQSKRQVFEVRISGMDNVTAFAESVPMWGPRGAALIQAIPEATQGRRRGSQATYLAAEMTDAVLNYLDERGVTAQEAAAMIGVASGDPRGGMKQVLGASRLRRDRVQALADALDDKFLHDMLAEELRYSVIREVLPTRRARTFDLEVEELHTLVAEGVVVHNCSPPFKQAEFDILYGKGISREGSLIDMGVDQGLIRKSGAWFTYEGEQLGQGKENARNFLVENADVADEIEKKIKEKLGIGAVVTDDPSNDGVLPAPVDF
# [10] = target: T6, Rac GTPase-activating protein 1 (Homo sapiens, UniProt Q9H0H5); assay: MgcRacGAP GTPase-activating activity inhibitors, confirmation, biochemical, ADP Hunter fluorescence, primary and confirmatory (AID 624330); assay type: functional
# T6 sequence (Q9H0H5 whole entry): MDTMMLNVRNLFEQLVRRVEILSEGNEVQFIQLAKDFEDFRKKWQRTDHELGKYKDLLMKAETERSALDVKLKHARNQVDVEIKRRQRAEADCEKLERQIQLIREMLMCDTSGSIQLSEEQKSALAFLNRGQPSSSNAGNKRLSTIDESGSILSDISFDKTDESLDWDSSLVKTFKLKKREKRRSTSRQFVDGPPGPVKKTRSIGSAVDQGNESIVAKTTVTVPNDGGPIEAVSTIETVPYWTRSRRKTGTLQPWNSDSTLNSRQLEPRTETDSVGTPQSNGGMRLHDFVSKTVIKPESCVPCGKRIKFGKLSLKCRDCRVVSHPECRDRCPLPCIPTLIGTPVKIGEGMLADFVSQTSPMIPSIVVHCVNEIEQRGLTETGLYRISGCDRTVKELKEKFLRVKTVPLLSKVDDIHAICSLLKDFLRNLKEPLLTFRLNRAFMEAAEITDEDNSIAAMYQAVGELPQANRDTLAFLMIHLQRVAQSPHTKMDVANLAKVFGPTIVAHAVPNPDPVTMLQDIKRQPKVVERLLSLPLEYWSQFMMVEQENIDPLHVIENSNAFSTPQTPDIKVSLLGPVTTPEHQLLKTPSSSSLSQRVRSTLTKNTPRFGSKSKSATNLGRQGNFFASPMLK
# [11] = target: T2, Cytochrome P450 2C9; remark: listed apart in the source
# Chain of Cytochrome P450 2D6 (P10635 whole entry): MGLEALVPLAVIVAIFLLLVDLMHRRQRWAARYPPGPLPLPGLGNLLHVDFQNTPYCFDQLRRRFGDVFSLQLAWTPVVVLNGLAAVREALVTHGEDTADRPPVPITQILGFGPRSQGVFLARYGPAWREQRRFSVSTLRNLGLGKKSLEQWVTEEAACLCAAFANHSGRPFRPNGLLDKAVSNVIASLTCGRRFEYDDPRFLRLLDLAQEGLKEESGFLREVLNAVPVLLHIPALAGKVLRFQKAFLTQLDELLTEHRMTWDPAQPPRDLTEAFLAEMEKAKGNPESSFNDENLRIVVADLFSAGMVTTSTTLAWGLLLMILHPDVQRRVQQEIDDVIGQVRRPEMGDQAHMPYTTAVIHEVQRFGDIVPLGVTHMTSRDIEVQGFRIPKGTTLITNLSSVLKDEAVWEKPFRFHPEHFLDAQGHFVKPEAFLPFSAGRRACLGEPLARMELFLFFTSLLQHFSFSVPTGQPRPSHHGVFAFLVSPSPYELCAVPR
compound,measurement,setting,value
CN1[C@@H]2CC[C@H]1CC(O[C@@H](c1ccccc1)c1ccccc1N)C2 (stereo partly drawn),AC50,[1],25.1 µM (inconclusive)
same,AC50,[2],15.8 µM (inconclusive)
same,AC50,[3],12.6 µM (inconclusive)
same,AC50,[4],inconclusive
COC(=O)c1ccccc1NC(=O)c1ccc(COc2ccc(C)c(C)c2)o1,AC50,[3],1.41 µM (inconclusive)
same,AC50,[4],inconclusive
COc1ccc2cc(C#N)c(SCC(=O)N3CCCC3)nc2c1,IC50,[5],55.7 µM (active)
Cc1cc(C)cc(OCC(=O)Nc2ccc3c4c(cccc24)CC3)c1,AC50,[6],11.2 µM (inconclusive)
same,AC50,[2],2.51 µM (inconclusive)
same,AC50,[4],inconclusive
CC(C)(C)NC(=O)C(Cc1ccccc1)NS(=O)(=O)c1ccc2c(c1)CCC(=O)N2 (stereo not drawn),AC50,[1],12.6 µM (inconclusive)
same,AC50,[4],inconclusive
O=C(Nn1c(-c2ccccc2)nc2ccccc2c1=O)c1cccs1,IC50,[5],51.1 µM (active)
Cc1nc(S(=O)(=O)c2cccc(Cl)c2)nc2c1CCC2,AC50,[2],12.6 µM (inconclusive)
same,AC50,[4],inconclusive
CCOC(=O)COc1ccc(Br)cc1/C=C\c1nc(O)nc(O)c1[N+](=O)[O-],IC50,[5],36.5 µM (active)
Cc1ccc(S(=O)(=O)NN2C(=O)/C(=C/c3cccs3)SC2=S)cc1,IC50,[5],30.9 µM (active)
same,IC50,[7],35.3 µM (active)
CC1=NN(c2ccccc2)C(=O)/C1=C/c1cccc(C)c1,AC50,[8],3.59 µM (active)
same,EC50,[9],1.58 µM (active)
same,IC50,[7],50.5 µM (active)
CCOc1ccc(NC(=O)CCNS(=O)(=O)c2ccc3c(c2)c(=O)n(C)c(=O)n3C)cc1,AC50,[2],2.51 µM (inconclusive)
same,AC50,[4],inconclusive
Cc1c(NC(=S)N/N=C/c2ccc(O)cc2)c(=O)n(-c2ccccc2)n1C,IC50,[10],55.6 µM (active)
same,AC50,[4],inconclusive
O=C(N/N=C1\CCCc2ccccc21)c1ccc([N+](=O)[O-])cc1Cl,AC50,[4],inconclusive
N=C(N)NC(=O)Cc1c(Cl)cccc1Cl [GUANFACINE],AC50,[11],31.6 µM (inconclusive)
same,AC50,[4],inconclusive
